From US4233309A, “Novel 1-substituted-3-acylpyrrole derivatives, platelet aggregation inhibitors containing them, as active ingredients, and processes for production of said derivatives” (Teijin Limited, priority 1977, dated 1980)
≈ marks a conversion by molar mass, not a printed value. Where two headings read alike, the source gives them in different places.

Key:
[1] = tested on: platelet aggregation (platelet-rich plasmas (PRP) of guinea pigs); assay: Activity of inhibiting platelet aggregation in vitro, guinea pig PRP, sodium arachidonate as aggregating agent (Table 1); assay type: cell-based, Hartley-strain male guinea pigs; details: Cavia porcellus, sodium arachidonate 0.03 mM final, 37° C., final concentration, read-out: IC50 (minimum concentration of drug which showed a percent inhibition of more than 50%)
Description: Some 1-substituted-3-acylpyrrole derivatives and other drugs were tested for platelet aggregation inhibiting activities in vitro using platelet-rich plasmas (PRP) of man and guinea pigs. The results are shown as minimum concentration of drugs which inhibit more than 50% of platelet aggregation induced by several aggregating agents.
In experiments with PRP of guinea pigs, sodium arachidonate (final concentration 0.03 mM) was used as an aggregating agent. In experiments with human PRP, sodium arachidonate (final concentration 0.1 mM), collagan suspension (final concentration 10 μg/ml), epinephrine solution (final concentration 20 μg/ml; for secondary aggregation), an epinephrine solution (final concentration 2 μg/ml; for primary aggregation) and ADP (final concentration 5 μM) were used as aggregating agents.
In an experiment with guinea pig PRP, citrated blood (containing 0.38% sodium citrate as a final concentration) was withdrawn by cardiac puncture from Hartley-strain male guinea pigs having a body weight of 350 to 600 g. The citrated blood was centrifuged at 1,000 rpm for 10 minutes at room temperature, and the supernatant platelet suspension (PRP) was separated.
The PRP was stored at room temperature, and used as soon as possible. Those which had been stored for more than 4 hours after preparation were not used.
For each test, a drug is dissolved in dimethylsulfoxide to a concentration of 10 mg/ml, and diluted with physiological saline to form 1 ml each of solutions having a concentration of 2500 μg/ml, 1000 μg/ml, 750 μg/ml, 500 μg/ml, 250 μg/ml and 100 μg/ml. A compound having a free carboxylic acid as a residue such as indomethacine and Ibprofen was dissolved in 0.1 M NaHCO3 to form a sodium salt solution having a concentration of 10 mg/ml. Then, the solution was diluted with physiological saline in the same way as above to form a test drug solution.
Arachidonic acid (99% pure, a product of Sigma Co., Ltd.) was dissolved in 0.1 M NaHCO3, and a 3.3 mM solution of sodium arachidonate was prepared. The solution was diluted with physiological saline to a concentration of 1 mM and used in the experiments. The 3.3 mM solution was stored in a refrigerator as a stock solution, and the 1 mM solution was newly prepared from the stock solution every time it was used.
Physiological saline (50 μl) and 50 μl of the aggregating agent solution were added to 400 μl of PRP which had been pre-warmed and stirred at 37° C. in a quvett set in a holder of an aggregometer. Platelet aggregation was thus initiated, and the change of light transmittance through a stirred platelet suspension was recorded for 3 minutes by a recorder joined to the aggregometer. An increase in transmittance after 3 minutes (T0) was used as a parameter of the rate of platelet aggregation in control experiments.
To 400 μl of PRP in a quvett was added 50 μl of a test drug solution. The mixture was pre-incubated and stirred for 2 minutes at 37° C. Then 50 μl of the aggregating agent was added to drug containing PRP and again aggregation responses were recorded as increases in light transmittance after 3 minutes (T1) in the same way as in (1) above. Percent inhibition was calculated from the formula [formula]
For the above in vitro test for the inhibition of platelet aggregation, reference may be had to H. M. Davis, J. Phyllis, K. Paul and W. Terry: Thromb. Res. 11, 217-226 (1977) and R. E. Anderson and J. G. Foulks: Thromb. Haemos. 36, 343-359 (1976).

Acute toxicity (Table 6) = assay type: in vivo; details: mouse, in vivo, mice, Litchfield-Wilcoxon, read-out: LD50 (50% lethal dose)
Description: (§1) ICR male mice with a body weight of 24 to 27 g (5 to 6 per group) were used. Each test compound was dissolved in propylene glycol in various concentrations, and administered orally (in a volume of 0.1 to 0.05 ml/10 g), subcutaneously (in a volume of 0.1 to 0.05 ml/10 g), or intraperitoneally (in a volume of 0.05 ml/10 g) to the mice. […] The LD50 (50% lethal dose) of each test compound was determined by the Litchfield-Wilcoxon method.
(§2) The denominator indicates the number of mice used, and the numerator, the number of dead mice.

ICR male mice = assay: Acute toxicity (Table 6); assay type: in vivo; details: 10 days
Description: as §1, §2

[2] = tested on: platelet aggregation (guinea pig PRP, extra vivo); assay: Inhibitory effect of compounds on platelet aggregation in extra vivo (Table 4); set-up: species or system Hartley-strain guinea pigs; details: Cavia porcellus, 10 mg/kg SC, 1 h after administration

Cc1cc(C(=O)c2ccccc2)c(C)n1CC(C)O (stereo not drawn) [Compound 102, 2-(3-benzoyl-2,5-dimethylpyrrol-1-yl)-1-methylethanol]
IC50 [1]: 5 µg/mL (≈ 19.4 µM) | LD50 at 240 h (Acute toxicity (Table 6); ip, intraperitoneal): 110 mg/kg | LD50 at 240 h (Acute toxicity (Table 6); po, peroral): > 4000 mg/kg | LD50 at 240 h (Acute toxicity (Table 6); sc, subcutaneous): > 4000 mg/kg | mortality (dead mice / mice used) (ICR male mice; intraperitoneal, 62.5 mg/kg): 0/5 | mortality (dead mice / mice used) (ICR male mice; intraperitoneal, 125 mg/kg): 4/5 | mortality (dead mice / mice used) (ICR male mice; intraperitoneal, 250 mg/kg): 5/5 | mortality (dead mice / mice used) (ICR male mice; intraperitoneal, 500 mg/kg): 5/5 | mortality (dead mice / mice used) (ICR male mice; peroral, 1000 mg/kg): 0/6 | mortality (dead mice / mice used) (ICR male mice; peroral, 2000 mg/kg): 0/6 | mortality (dead mice / mice used) (ICR male mice; peroral, 3000 mg/kg): 0/6 | mortality (dead mice / mice used) (ICR male mice; peroral, 4000 mg/kg): 1/6 | mortality (dead mice / mice used) (ICR male mice; subcutaneous, 4000 mg/kg): 0/5 | inhibition at 10 mg/kg ([2]; collagen 5 μg/ml, read-out: Percent inhibition of platelet aggregation, collagen): 79% | inhibition at 10 mg/kg ([2]; sodium arachidonate 0.03 mM, read-out: Percent inhibition of platelet aggregation, sodium arachidonate): 99%
